We go through 43 compounds from ChEMBL document CHEMBL1140823, “Pyrazolopyridines with potent activity against herpesviruses: effects of C5 substituents on antiviral activity” (Bioorg Med Chem Lett, 2008).

Data set [1] can be described thus: Cytotoxicity against african green monkey Vero cells. The settings on record: chlorocebus sabaeus. The data set is classed as cell-based.
In a further data set the test system is Human alphaherpesvirus 1. As to the kind of experiment: Antiviral activity against HSV1 SC16 in african green monkey Vero cells. The data set is classed as functional, organism-based. The following applies: Human alphaherpesvirus 1, SC16, Vero.

Where only a bound is given, the exact number is not on record here.

Consider `COc1ccc(-c2nn3c(NC4CCCC4)cccc3c2-c2ccnc(NC3CCCC3)n2)cc1`, for which the CC50 (as a rule, the concentration that lowers cell viability or growth by half) in data set [1] is more than 100000 nM. In addition, half-maximal inhibition in the data set on Human alphaherpesvirus 1 (IC50) was put at 220 nM.
For `COc1ccc(-c2nn3ccc(NC4CCCC4)cc3c2-c2ccnc(NC3CCCC3)n2)cc1` the same measures were 12300 nM and 210 nM.
For `COCCOc1cc(NC2CCCC2)cc2c(-c3ccnc(NC4CCCC4)n3)c(-c3ccc(F)cc3)nn12` the same measures were 32500 nM and 80 nM.
In the same order, the values of `Fc1ccc(-c2nn3c(NC4CC4)cc(Cl)cc3c2-c2ccnc(NC3CCCC3)n2)cc1` are more than 40000 nM and 330 nM.
Take `Fc1ccc(-c2nn3c(Cl)cc(NC4CCCC4)cc3c2-c2ccnc(NC3CCCC3)n2)cc1`: the CC50 in data set [1] is more than 40000 nM. The IC50 – broadly, the concentration at which inhibition is half-maximal – in the data set with Human alphaherpesvirus 1 was determined as 1360 nM.
For the compound `CN(C)c1cc(Cl)cc2c(-c3ccnc(NC4CCCC4)n3)c(-c3ccc(F)cc3)nn12`, the half-maximal cytotoxic concentration (CC50) in data set [1] was more than 40000 nM. 380 nM corresponded to half-maximal inhibition in the data set on Human alphaherpesvirus 1 (IC50).
As to `Fc1ccc(-c2nn3ccc(Cl)cc3c2-c2ccnc(NC3CCCC3)n2)cc1`, the CC50 in data set [1] was more than 40000 nM. The IC50 in the data set on Human alphaherpesvirus 1 is more than 5000 nM.
For `Fc1ccc(-c2nn3c(NC4CCCC4)cc(Cl)cc3c2-c2ccnc(NC3CCCC3)n2)cc1` the same measures were more than 40000 nM and 330 nM.
For the compound `Fc1ccc(-c2nn3c(NC4CCCC4)cc(OCC4CC4)cc3c2-c2ccnc(NC3CCCC3)n2)cc1`, the CC50 in data set [1] is more than 40000 nM. Moreover, the IC50 in the data set with Human alphaherpesvirus 1 stood at 170 nM.
For `Fc1ccc(-c2nn3c(N4CCOCC4)cc(Cl)cc3c2-c2ccnc(NC3CCCC3)n2)cc1` the same measures were more than 40000 nM and 180 nM.
In the same order, the values of `COc1ccc(-c2nn3ccc(Cl)cc3c2-c2ccnc(NC3CCCC3)n2)cc1` are more than 40000 nM and 4270 nM.
On to `Fc1ccc(-c2nn3c(NC4CCCC4)cc(NC4CCCC4)cc3c2-c2ccnc(NC3CCCC3)n2)cc1`, for which, in data set [1], the CC50 was more than 40000 nM. The compound also gave an IC50 in the data set with Human alphaherpesvirus 1 of 240 nM.
On to `Nc1nc2c(ncn2COCCO)c(=O)[nH]1` [ACYCLOVIR], for which, in data set [1], the CC50 was more than 200000 nM. Besides, the IC50 in the data set on Human alphaherpesvirus 1 was 390 nM.
For `COc1ccc(-c2nn3ccc(NC(C)C)cc3c2-c2ccnc(NC3CCCC3)n2)cc1` the same measures were more than 40000 nM and 920 nM.
As for `Fc1ccc(-c2nn3c(N4CCCCC4)cc(Cl)cc3c2-c2ccnc(NC3CCCC3)n2)cc1`, the CC50 in data set [1] was more than 40000 nM. The IC50 with Human alphaherpesvirus 1 amounted to 150 nM.
`Fc1ccc(-c2nn3c(Cl)cc(Cl)cc3c2-c2ccnc(NC3CCCC3)n2)cc1` had a CC50 in data set [1] of more than 40000 nM. Moreover, in the data set with Human alphaherpesvirus 1, the IC50 is 7000 nM.
For `COCCOc1cc(NC2CCCC2)n2nc(-c3ccc(F)cc3)c(-c3ccnc(NC4CCCC4)n3)c2c1` the same measures were more than 40000 nM and 320 nM.
For the compound `COc1ccn2nc(-c3ccc(F)cc3)c(-c3ccnc(NC4CCCC4)n3)c2c1`, the CC50 in data set [1] is more than 36000 nM. In the data set on Human alphaherpesvirus 1, this compound returned an IC50 of more than 36000 nM.
`Fc1ccc(-c2nn3ccc(N4CCCC4)cc3c2-c2ccnc(NC3CCCC3)n2)cc1` came in with a CC50 in data set [1] of more than 40000 nM. The same compound displayed an IC50 with Human alphaherpesvirus 1 of 1350 nM.
For `COc1ccc(-c2nn3c(SC(C)C)cc(NC4CCCC4)cc3c2-c2ccnc(NC3CCCC3)n2)cc1` the same measures were more than 40000 nM and 210 nM.
In the same order, the values of `CC(C)Nc1cc(Cl)cc2c(-c3ccnc(NC4CCCC4)n3)c(-c3ccc(F)cc3)nn12` are more than 40000 nM and 1500 nM.
Take `COc1cc(NC2CCCC2)n2nc(-c3ccc(F)cc3)c(-c3ccnc(NC4CCCC4)n3)c2c1`: in data set [1], the CC50 was more than 40000 nM. The IC50 in the data set with Human alphaherpesvirus 1 turned out to be 130 nM.
In data set [1], `CCOc1cc(NC2CCCC2)cc2c(-c3ccnc(NC4CCCC4)n3)c(-c3ccc(F)cc3)nn12` gave a 50% cytotoxic concentration (CC50) of 20600 nM. This compound also registered an IC50 with Human alphaherpesvirus 1 of 160 nM.
For `CCSc1cc(NC2CCCC2)cc2c(-c3ccnc(NC4CCCC4)n3)c(-c3ccc(OC)cc3)nn12` the same measures were more than 40000 nM and 40 nM.
For the compound `COCCNc1ccn2nc(-c3ccc(F)cc3)c(-c3ccnc(NC4CCCC4)n3)c2c1`, the cytotoxic concentration (CC50) in data set [1] was more than 40000 nM. In the data set on Human alphaherpesvirus 1, this compound displayed an IC50 of 830 nM.
Regarding `Fc1ccc(-c2nn3c(NC4CCCC4)cccc3c2-c2ccnc(NC3CCCC3)n2)cc1`, in data set [1], the CC50 was more than 160000 nM. This compound returned an IC50 in the data set with Human alphaherpesvirus 1 of 260 nM.
In the case of `CC(C)Oc1cc(NC2CCCC2)n2nc(-c3ccc(F)cc3)c(-c3ccnc(NC4CCCC4)n3)c2c1`, the CC50 in data set [1] was more than 40000 nM. Moreover, in the data set on Human alphaherpesvirus 1, the IC50 was 70 nM.
As to `CC(C)Sc1cc(NC2CCCC2)cc2c(-c3ccnc(NC4CCCC4)n3)c(-c3ccc(F)cc3)nn12`, in data set [1], the CC50 was more than 40000 nM. Moreover, the IC50 in the data set on Human alphaherpesvirus 1 worked out at 370 nM.
In data set [1], `CCSc1cc(NC2CCCC2)cc2c(-c3ccnc(NC4CCCC4)n3)c(-c3ccc(F)cc3)nn12` returned a CC50 of more than 40000 nM. The compound further displayed a 50% inhibitory concentration (IC50) in the data set on Human alphaherpesvirus 1 of 70 nM.
Regarding `Nc1ccn2nc(-c3ccc(F)cc3)c(-c3ccnc(NC4CCCC4)n3)c2c1`, it took 20000 nM to reach half-maximal cytotoxicity in data set [1] (CC50). In the data set on Human alphaherpesvirus 1, this compound gave an IC50 of 5070 nM.
For the compound `c1cc(NC2CCCC2)n2nc(-c3ccc(OCC4CC4)cc3)c(-c3ccnc(NC4CCCC4)n3)c2c1`, in data set [1], the CC50 is more than 40000 nM. In the data set on Human alphaherpesvirus 1, this compound returned an IC50 of 170 nM.
For `CC(C)Nc1ccn2nc(-c3ccc(F)cc3)c(-c3ccnc(NC4CCCC4)n3)c2c1` the same measures were more than 40000 nM and 2730 nM.
In the case of `COc1ccc(-c2nn3c(NC4CCCC4)cc(Cl)cc3c2-c2ccnc(NC3CCCC3)n2)cc1`, the CC50 in data set [1] was more than 40000 nM. In the data set with Human alphaherpesvirus 1, this compound returned a concentration for half-maximal inhibition (IC50) of 220 nM.
In data set [1], `COc1ccc(-c2nn3c(NC4CC4)cc(Cl)cc3c2-c2ccnc(NC3CCCC3)n2)cc1` displayed a CC50 of more than 40000 nM. Besides, the IC50 in the data set on Human alphaherpesvirus 1 is 340 nM.
For `COc1ccc(-c2nn3c(Sc4ccccc4)cc(NC4CCCC4)cc3c2-c2ccnc(NC3CCCC3)n2)cc1` the same measures were more than 40000 nM and 1800 nM.
In the same order, the values of `c1cc(-c2c(-c3ccc(OCC4CC4)cc3)nn3ccc(NC4CCCC4)cc23)nc(NC2CCCC2)n1` are more than 40000 nM and 330 nM.
For `CC(C)COc1ccc(-c2nn3ccc(NC4CCCC4)cc3c2-c2ccnc(NC3CCCC3)n2)cc1` the same measures were 27000 nM and 560 nM.
In data set [1], `COc1ccc(-c2nn3c(Cl)cc(Cl)cc3c2-c2ccnc(NC3CCCC3)n2)cc1` showed a CC50 of more than 40000 nM. The compound further registered an IC50 with Human alphaherpesvirus 1 of 5300 nM.
In the same order, the values of `Fc1ccc(-c2nn3ccc(NC4CCCC4)cc3c2-c2ccnc(NC3CCCC3)n2)cc1` are 18000 nM and 530 nM.
As to `COc1ccc(-c2nn3c(SC)cc(NC4CCCC4)cc3c2-c2ccnc(NC3CCCC3)n2)cc1`, the CC50 in data set [1] was more than 40000 nM. The compound further came in with an IC50 with Human alphaherpesvirus 1 of 220 nM.
For the compound `CC(C)Nc1cc(NC(C)C)n2nc(-c3ccc(F)cc3)c(-c3ccnc(NC4CCCC4)n3)c2c1`, the CC50 in data set [1] is more than 40000 nM. The same compound gave an IC50 with Human alphaherpesvirus 1 of 550 nM.
In the same order, the values of `Fc1ccc(-c2nn3ccc(N4CCOCC4)cc3c2-c2ccnc(NC3CCCC3)n2)cc1` are 34000 nM and 3630 nM.
With `CSc1cc(NC2CCCC2)cc2c(-c3ccnc(NC4CCCC4)n3)c(-c3ccc(F)cc3)nn12`, the 50% cytotoxic concentration (CC50) in data set [1] is more than 40000 nM. The compound also displayed an IC50 with Human alphaherpesvirus 1 of 170 nM.
